The subject of assay [1] is HCC 1806 human triple-negative breast cancer cell. Nature of the assay: MTS cell viability assay, HCC1806. It is filed as cell-based. The note with it: 72 h incubation. As for the experimental part:
(§1) The MTS assay was performed to examine cell viability.

Assay [2] has as its system Detroit 551 normal skin fibroblast. Nature of the assay: MTS cell viability assay, Detroit 551. It is filed as cell-based. The note with it: Homo sapiens, 72 h incubation. As for the experimental part: as §1
In general terms: Formazan colour is commonly taken as a measure of viable cells.

Assay [3] has as its system MIA PaCa-2 human pancreatic cells. The assay can be described thus: MTS cell viability assay, MIA PaCa-2. It is filed as cell-based. Particulars: 72 h incubation, read-out: MIA PaCa2 IC50. The method, then: as §1
In assay [4] the test system is PS-coated liposomes (DOPC/ DOPS (3:1,v/v)). The assay can be described thus: Biacore SPR binding assay with PS-containing liposomes. Particulars: for dissociation koff: zinc-coordinated, DOPC/DOPS (3:1) liposomes, 25 °C, DOPC reference. As for the experimental part:
Phospholipids, 1,2-dioleoyl-sn-glycero-3-phosphocholine (DOPC), and 1,2-dioleoyl-sn-glycero-3-[phospho-L-serine] (DOPS) were obtained from Avanti Polar Lipids (Alabaster, AL) in chloroform solutions. These stock solutions were combined to the indicated ratios. To a round-bottom flask, a 0.4 mL aliquot of lipid solution at concentration of 10 mg/mL was added and evaporated under a N2 gas stream to furnish a thin lipid film. Rehydration of lipid films was carried out in PBS buffer for at least 1 h at room temperature. Resulting suspensions were extruded through a 100 nm polycarbonate filter using an Avanti MiniExtruder following the manufacturer’s instructions. Zeta potential (ZP) and liposomes’ size distributions were recorded by dynamic light scattering (DLS) and microelectrophoresis using a Zetasizer Nano ZS instrument. Then, using a Biacore T200 biosensor equipped with an L1 sensor chip (GE Healthcare), binding kinetics between the conjugates and liposome were recorded at 25 °C. Preconditioning of new sensor chips was performed with running buffer (5% DMSO in phosphate-buffered saline (PBS) with final pH 7.4) and two consecutive 30 s pulses of 2:3 v/v 50 mM HCl/isopropanol at a flow rate of 30 μL/min. A fresh liposome capture plate was prepared for each binding cycle. In PBS buffer, liposomes were diluted to 0.5–1 mM and captured to saturation (30–150 s) across isolated flow cells at 2–5 μL/min. In a single injection, conjugates were first diluted with running buffer and injected over lipid surfaces. At flow rate of 30 μL/min, association and dissociation phases were examined for 60s. At the end of each binding cycle, the surface was regenerated by injecting 2:3 v/v 50 mM HCl/isopropanol and equilibrated with running buffer before the next injection of the test compound. […]
Figure S3. […] Zinc-coordinated dipicolylamine 24 and modified analog 11 were analyzed across a two-fold concentration series descending from 31.3 μM. The association was monitored for 1 min, and the dissociation time was 1 min. […]
(In general: In SPR one partner is held on a chip, and binding of the other changes the refractive index at the surface.)

Assay [5] can be described thus: Plasma incubation and tumor homogenate cleavage of conjugate. It is filed as in vitro ADME. The note with it: glutathione transferase inhibitor added to tumor homogenate. An excerpt: Figure 3 In vivo targeting ability, plasma stability, and in vivo biodistribution of modified zinc dipicolylamine conjugates in subcutaneous HCC1806 tumor xenografts. […] (B) In vivo detection of PS-expression in the HCC1806 tumor xenograft model. Representative IVIS images of new Zn11-794 fluorescence probe in mice.

Regarding `COc1cc2cc(c1Cl)N(C)C(=O)C[C@H](OC(=O)[C@H](C)N(C)C(=O)CCS)[C@]1(C)O[C@H]1[C@H](C)[C@@H]1C[C@@](O)(NC(=O)O1)[C@H](OC)/C=C/C=C(\C)C2` [Compound 14, DM1], the IC50 was 8 ± 3 nM in assay [1], over 20000 nM in assay [2] and 74 ± 27 nM in assay [3].

For `CCCCCC(=O)Nc1cccc(CN(Cc2cc(CN(Cc3ccccn3)Cc3cccc(NC(=O)CCCCC)n3)cc(OCCCCN)c2)Cc2ccccn2)n1` [Compound 11], the “improvement of dissociation koff over compound 24” value in assay [4] (PS-containing liposomes) is reported as 3 fold. For the same compound, the dissociation koff in assay [4] amounted to 0.00358 s^–1.

Consider `C=C(CC)C(=O)c1ccc(OCC(=O)O)c(Cl)c1Cl` [ethacrynic acid, reference compound], for which the “effect on abundance of intact conjugate 40a in tumor homogenate” value in assay [5] is recorded as “significantly rescued”.

`COc1cc2cc(c1Cl)N(C)C(=O)C[C@H](OC(=O)[C@H](C)N(C)C(=O)CCC(C)(C)S)[C@]1(C)O[C@H]1[C@H](C)[C@@H]1C[C@@](O)(NC(=O)O1)[C@H](OC)/C=C/C=C(\C)C2` [Compound 16, DM4]: the concentration for half-maximal inhibition (IC50) in assay [1] was 4 nM; in assay [2], over 20000 nM; in assay [3], 30 ± 3 nM.

For the compound `NCCCCOc1cc(CN(Cc2ccccn2)Cc2ccccn2)cc(CN(Cc2ccccn2)Cc2ccccn2)c1` [Compound 24, reference compound], in assay [4], the dissociation koff came to 0.0113 s^–1.

As usually defined, the IC50 is the concentration that gives 50% inhibition.
